# Data taken from patent US20160251402A1, “MICROPEPTIDES AND USE OF SAME FOR MODULATING GENE EXPRESSION” (UNIVERSITE PAUL SABATIER TOULOUSE III, priority 2013, published 2016).
# “Also recorded” adds a separate entry of the source.
# Key:
# [1] = tested on: pre-MtmiR171b, pre-MtmiR169, pre-MtmiR169a, pre-MtmiR171a, pre-MtmiR171h, pre-MtmiR393a, pre-MtmiR393b, pre-MtmiR396a, pre-MtmiR396b; test: Specificity: expression of different precursors of microRNAs in M. truncatula; assay type: in vivo, Medicago truncatula; details: plants overexpressing MtmiPEP171b1 or treated with MtmiPEP171b1 (0.1 μM)
# Method: The expression of different microRNA precursors of Medicago truncatula (MtmiR171b SEQ ID NO: 319, MtmiR169 SEQ ID NO: 367, MtmiR169a SEQ ID NO: 368, MtmiR171a SEQ ID NO: 369, MtmiR171h SEQ ID NO: 370, MtmiR393a SEQ ID NO: 371, MtmiR393b SEQ ID NO: 372, MtmiR396a SEQ ID NO: 373 and MtmiR396b SEQ ID NO: 374) was determined and compared between control plants and plants in which MtmiORF171b encoding MtmiPEP171b1 was overexpressed (FIG. 5A), or between control plants and plants grown on culture medium containing MtmiPEP171b1 (FIG. 5B).
# The total RNA was extracted from roots of M. truncatula or from tobacco leaves using the extraction kit RNeasy Plant Mini Kit (Qiagen). The reverse transcription was performed using the reverse transcriptase SuperScript II (Invitrogen) starting from 500 ng of total RNA. Three repetitions (n=3) were carried out, each with two technical repetitions. Each experiment was repeated from two to three times. The amplifications by qPCR were carried out using a LightCycler 480 System thermocycler (Roche Diagnostics) by the method described in Lauressergues et al. (Plant J., 72(3): 512-22, 2012).
# MtmiR171b = test: Accumulation of MtmiR171b / pre-MtmiR171b in M. truncatula roots (qRT-PCR); assay type: in vivo, Medicago truncatula; details: for relative expression of pre-MtmiR171b: watering once daily for 5 days with peptide at 0.01, 0.1 or 1 μM vs control plants
# Method: (§1) The surface of seeds of M truncatula was sterilized and they were left to germinate on agar plates for 5 days at 4° C. in the dark. The young shoots were then grown on 12-cm square plates filled with Fahraeus medium without nitrogen and containing 7.5 μM phosphate (Lauressergues et al., Plant J., 72(3): 512-22, 2012). The lateral roots were counted every day. In pots, the plants were watered every other day with modified Long Ashton medium with low phosphorus content (Balzergue et al., Journal of Experimental Botany, (62)1049-1060, 2011).
# The peptides were synthesized by Eurogentec or Smartox-Biotech. MtmiPEP171b1 was resuspended in a solution of 40% water/50% acetonitrile/10% acetic acid (v/v/v), and the other peptides were resuspended in water.
# The RNA was extracted using the reagent Tri-Reagent (MRC) according to the manufacturer's instructions, except for precipitation of the RNA, which was carried out with 3 volumes of ethanol. The everse transcription of the RNA was carried out using the specific stem-loop primer RTprimer171b in combination with hexamers for performing the reverse transcription of RNA of high molecular weight.
# In brief, 1 μg of RNA was added to the stem-loop primer MIR171b (0.2 μM), the hexamer (500 ng), the buffer RT (1×), the enzyme SuperScript Reverse transcriptase (SSIII) (one unit), the dNTPs (0.2 mM each), DTT (0.8 mM) in a final reaction mixture of 25 μl. […]
# The mean values of the relative expression of the genes or of the production of lateral roots were analysed using the Student test or the Kruskal-Wallis test. […]
# The composite plants having roots transformed with Agrobacterium rhizogenes were obtained by the method described in Boisson-Dernier et al. (Mol Plant-Microbe Interact, 18: 1269-1276, 2005). The transformed roots were verified and selected by observations of DsRED with a binocular fluorescence magnifier. […]
# [2] = tested on: Medicago truncatula lateral roots; test: Number of lateral roots in M. truncatula; assay type: in vivo
# Method: as §1, with “2011). The mean values of the relative expression of the genes or of the production of lateral roots were analysed using the Student test or the Kruskal-Wallis test. The error bars represent the SEM (Standard Error of the Mean). The asterisks indicate a significant difference (p<0.05).” for “2011).”
sequence,measurement,setting,value
MLLHRLSKFCKIERDIVYIS (listed as Medicago truncatula) [MtmiPEP171b1],ratio of the expression of the precursors of microRNAs to control roots (specificity),[1],only leads to an effect on the accumulation of MtmiR171b and not on the other miRNAs; also recorded: only leads to an increase in the accumulation of MtmiR171b and not of the other miRNAs
same,relative expression of MtmiR171b,"MtmiR171b; watering once daily for 5 days with peptide at 0.01, 0.1 or 1 μM vs control plant",increase in the accumulation
same,relative expression of pre-MtmiR171b,MtmiR171b,increase in the accumulation of pre-MtmiR171b
same,relative expression of pre-MtmiR171b,MtmiR171b; listed as MtPEP171b1,increase in the accumulation
same,mean number of lateral roots,[2]; plant in which MtmiPEP171b1 is overexpressed vs control plant,reduction in the number of lateral roots
same,mean number of lateral roots,[2]; watering with peptide at 0.1 μM once daily for 5 days vs control plant,reduction in the number of lateral roots
